Results from patent US5532231A, “Antibacterial agent” (priority 1994, dated 1996).

How the values were obtained:
[1] = tested on: Mycobacteria smegmatis; assay: Antimicrobial spectrum, liquid media, viable cell count; assay type: cell-based, Mycobacterium smegmatis; conditions: saturating concentrations
Procedure: Saturated solutions of TA and Focusin were prepared by adding 1.14 μg TA and 7 μg Focusin to 1 ml LB (final conc. of 1% ethanol). About 10^5 bacteria of various strains were then added. The control was bacteria in the same medium with no antibacterial agents. The bacteria were introduced at 37° C. with shaking at 100 rpm. When the control became turbid, viable cell count was performed on LB agar plates. Growth inhibition is presented as percentage of the no antibiotic control.

[2] = tested on: E. coli ESS; assay: Bactericidal effect when bound to mouse tissues; assay type: cell-based, Escherichia coli; conditions: 4 μg TA or 20 μg Focusin, 5 h
Procedure: Two mice were sacrificed by exposure to ether. The bladder, eyes, intestines, lungs, heart, teeth, liver, spleen and kidneys were removed by dissection. Each experimental set consisted of three test tubes. A piece of each tissue type was placed in each of the three test tubes. The amount of tissue per tube were as follows: bladder 1/3, eye 1/2, intestine 1 cm, lung 1/2, heart 1/3, fang tooth 1/2, liver 1/3, spleen 1/3 and kidney 1/2. One test tube contained a control tissue which was treated only with the solvent used for dissolving the antibacterial agent, usually 50% ethanol. The second and third test tubes contained tissues were treated with 4 μg TA or 20 μg Focusin, respectively.
Following application of the antibacterial agent or the control solution, the tissues were allowed to dry in a hood for 30 mins., and then placed in the test tubes.
One milliliter of sterile saline was then added to each test tube and the tubes were then incubated with shaking (50 rpm) at 37° C. for one hour. The amount of antibacterial agent that was released to the saline was measured following chloroform extraction by the disc filter assay.
The tissues were then transferred to exponentially growing cultures of E. coli ESS in NB at a concentration of 10^5 cells/ml. Incubation was at 37° C. and continued for 5 hours, following which the number of viable cells was checked.

[3] = tested on: E. coli ESS; assay: Killing effect of the washed treated mouse tissue; assay type: cell-based, Escherichia coli; conditions: for Inhibition % by the treated tissue*** / Inhibition % by the treated tissue**: 10 μg Focusin; for Inhibition % by the treated tissue***: after third transfer
Procedure: Focusin was tested in the same manner as that described above (under 8.1) with the exception that the tissues in the test tube were washed four times with a solution of 1 ml sterile saline. Each saline wash was for 1 hour at 37° C. Following incubation, the washing saline solution was added to an exponentially growing cultures of E. coli ESS in a concentration of 10^5 cells/ml.
The cultures with the saline wash were incubated at 37° C. for 6 hours and then viable cell count was performed in order to estimate the amount of killing by the antibacterial agent that were released from the tissues. After the four washes the tissues were transferred to 10^5 E. coli ESS log cultures and were then incubated for 5 hours. The tissues were transferred in this way for three times, each time the percentage of inhibition by the treated tissue was measured by viable count.
The tissues were treated as described in Section 8.2 above.
After the fourth wash, the treated tissues were transferred to E. coli ESS cultures (10^5 cells) in nutrient broth. The culture tubes were then incubated at 37° C. for 6 hours and the extent of growth inhibition was measured by viable cell count. The treated tissues were transferred to E. coli cultures two more times (a total of three times), and each time the percentage of growth inhibition by the treated tissues was checked.

Which killing [1] does the source give for `CCCC1OC(=O)C(C)CC(C)CCCCC(=O)CCCC(CC)CCCC(COC)CCC(O)C(O)CC(O)CNC1=O` (centres unmarked) [Focusin] here?
The killing was 0%.

What about the “Inhibition % by the treated tissue” value ([2]; bladder) of the same compound?
Its value is 100%.

And the “Inhibition % by the treated tissue” value ([2]; heart)?
The value was 90%.

What about the “Inhibition % by the treated tissue” value ([2]; intestine) of the same compound?
Its value is 100%.

What about the “Inhibition % by the treated tissue” value ([2]; kidney) of the same compound?
Its value is 100%.

What about the “Inhibition % by the treated tissue” value ([2]; liver) of the same compound?
Its value is 94%.

And the “Inhibition % by the treated tissue” value ([2]; lungs)?
The value was 100%.

And the “Inhibition % by the treated tissue” value ([2]; spleen)?
Its value is 100%.

And the “Inhibition % by the treated tissue” value ([2]; teeth)?
The value was 100%.

What about the “inhibition by the washed tissues containing bound focusin” value ([3]; all tissues, first transfer) of the same compound?
Its value is at least 99%.

What about the “inhibition after the third transfer (in words)” value ([3]; bladder and eye) of the same compound?
The value was “no inhibition was observed”.

And the “Inhibition % by the treated tissue***” value ([3]; bladder)?
The value was 0%.

And the “Inhibition % by the treated tissue**” value ([3]; bladder, first transfer)?
Its value is over 99%.

And the “Inhibition % by the treated tissue***” value ([3]; eye)?
The value was 0%.

And the “Inhibition % by the treated tissue**” value ([3]; eye, first transfer)?
The value was over 99%.

And the “Inhibition % by the treated tissue***” value ([3]; heart)?
Its value is 98%.

What about the “Inhibition % by the treated tissue**” value ([3]; heart, first transfer) of the same compound?
The value was 100%.

What about the “Inhibition % by the treated tissue***” value ([3]; intestine) of the same compound?
The value was 38%.

And the “Inhibition % by the treated tissue**” value ([3]; intestine, first transfer)?
Its value is 100%.

And the “Inhibition % by the treated tissue***” value ([3]; kidney)?
The value was 90%.

What about the “Inhibition % by the treated tissue**” value ([3]; kidney, first transfer) of the same compound?
The value was 100%.

And the “Inhibition % by the treated tissue***” value ([3]; liver)?
The value was 100%.

And the “Inhibition % by the treated tissue**” value ([3]; liver, first transfer)?
The value was 99%.

What about the “Inhibition % by the treated tissue***” value ([3]; lungs) of the same compound?
The value was 17%.

And the “Inhibition % by the treated tissue**” value ([3]; lungs, first transfer)?
Its value is 100%.

What about the “Inhibition % by the treated tissue***” value ([3]; spleen) of the same compound?
Its value is 98%.

And the “Inhibition % by the treated tissue**” value ([3]; spleen, first transfer)?
Its value is 100%.

What about the “Inhibition % by the treated tissue***” value ([3]; teeth) of the same compound?
Its value is 91%.

And the “Inhibition % by the treated tissue**” value ([3]; teeth, first transfer)?
The value was 100%.
